Test results as given in the NIST ThermoML archive (doi:10.1016/j.fluid.2018.05.031).
± gives the expanded uncertainty stated by the source.

Conditions: Liquid; Ebulliometric method (Recirculating still)

| SMILES | Normal boiling temperature |
| --- | --- |
| CO [methanol] | 64.50 ± 0.2 °C |
| COC(C)=O [methyl ethanoate] | 56.90 ± 0.2 °C |
